Where two headings read alike, the source gives them in different places.
System: SARS-CoV-2 strain BavPat1
Test: Determination of EC50 and EC90: inhibition of SARS-CoV-2 viral RNA replication in Vero E6 cells (RT-qPCR)
Format: cell-based
Conditions: for EC50: Severe acute respiratory syndrome coronavirus 2, Vero C1008, 48 h, read-out: EC50 (compound concentration required to inhibit viral RNA replication by 50%)

For COc1cccc(-c2ccc(NC(=O)C3=C(C(=O)O)CCC3)c(F)c2)c1 [Vidofludimus, 2-[[2-fluoro-4-(3-methoxyphenyl)phenyl]carbamoyl]cyclopentene-1-carboxylic acid], the EC50 (Vero E6 cells, MOI 0.002, 2 days at 37° C., viral RNA in supernatant, logarithmic interpolation) was 23.1 µM and the “effect on replication of SARS-CoV-2” value (Vero E6 cells, two days of culture) was “can repress the replication of SARS-CoV-2 in a significant manner”.

For CCC(CC)COC(=O)[C@H](C)N[P@](=O)(OC[C@H]1O[C@@](C#N)(c2ccc3c(N)ncnn23)[C@H](O)[C@@H]1O)Oc1ccccc1 [remdesivir], the EC50 was 6.65 µM.
